ChEMBL document CHEMBL4229365, “Synthesis of novel ring-contracted artemisinin dimers with potent anticancer activities” (Eur J Med Chem, 2018)
The source made the active and inactive calls. No cut-off for these calls is given here.

How the values were obtained:
[1] = Stability of the compound in air at 60 degC after 24 hrs; assay type: physicochemical
A-375 = test: Antiproliferative activity against human A375 cells after 72 hrs by CCK-8 assay; assay type: functional, cell-based; conditions: A-375, 72 h
A549 = test: Antiproliferative activity against human A549 cells after 72 hrs by CCK-8 assay; assay type: functional, cell-based; conditions: A549, 72 h
SH-SY5Y = test: Antiproliferative activity against human SH-SY5Y cells after 72 hrs by CCK-8 assay; assay type: functional, cell-based
HCT-116 = test: Antiproliferative activity against human HCT116 cells after 72 hrs by CCK-8 assay; assay type: functional, cell-based; conditions: HCT-116, 72 h
PC-12 [2] = test: Antiproliferative activity against rat PC12 cells after 72 hrs by CCK-8 assay; assay type: functional, cell-based; conditions: PC-12, 72 h
L02 = test: Antiproliferative activity against human L02 cells after 72 hrs by CCK-8 assay; assay type: cell-based; conditions: L02, 72 h
[3] = Half life in human liver microsomes at 1.11 uM preincubated for 10 mins followed by NADPH addition by LC-MS/MS analysis; assay type: ADME, microsome
[4] = Clearance in human liver microsomes at 1.11 uM preincubated for 10 mins followed by NADPH addition by LC-MS/MS analysis; assay type: ADME, microsome; conditions: read-out: CLH
PC-12 [5] = test: Cell cycle arrest in rat PC12 cells assessed as accumulation at G1 phase at 1 uM after 24 hrs by propidium iodide/RNase A staining-based flow cytometric analysis (reference value: 58.07%); assay type: functional
PC-12 [6] = test: Cell cycle arrest in rat PC12 cells assessed as accumulation at S phase at 1 uM after 24 hrs by propidium iodide/RNase A staining-based flow cytometric analysis (reference value: 30.30%); assay type: functional
PC-12 [7] = test: Cell cycle arrest in rat PC12 cells assessed as accumulation at G2 phase at 1 uM after 24 hrs by propidium iodide/RNase A staining-based flow cytometric analysis (reference value: 11.63%); assay type: functional
PC-12 [8] = test: Cell cycle arrest in rat PC12 cells assessed as accumulation at G1 phase at 3 uM after 24 hrs by propidium iodide/RNase A staining-based flow cytometric analysis (reference value: 58.07%); assay type: functional
PC-12 [9] = test: Cell cycle arrest in rat PC12 cells assessed as accumulation at S phase at 3 uM after 24 hrs by propidium iodide/RNase A staining-based flow cytometric analysis (reference value: 30.30%); assay type: functional
PC-12 [10] = test: Cell cycle arrest in rat PC12 cells assessed as accumulation at G2 phase at 3 uM after 24 hrs by propidium iodide/RNase A staining-based flow cytometric analysis (reference value: 11.63%); assay type: functional
PC-12 [11] = test: Cell cycle arrest in rat PC12 cells assessed as accumulation at G1 phase at 5 uM after 24 hrs by propidium iodide/RNase A staining-based flow cytometric analysis (reference value: 58.07%); assay type: functional
PC-12 [12] = test: Cell cycle arrest in rat PC12 cells assessed as accumulation at S phase at 5 uM after 24 hrs by propidium iodide/RNase A staining-based flow cytometric analysis (reference value: 30.30%); assay type: functional
PC-12 [13] = test: Cell cycle arrest in rat PC12 cells assessed as accumulation at G2 phase at 5 uM after 24 hrs by propidium iodide/RNase A staining-based flow cytometric analysis (reference value: 11.63%); assay type: functional
PC-12 [14] = test: Cell cycle arrest in rat PC12 cells assessed as accumulation at G1 phase after 24 hrs by propidium iodide/RNase A staining-based flow cytometric analysis; assay type: functional
PC-12 [15] = test: Induction of apoptosis in rat PC12 cells assessed as nuclear condensation up to 3.13 uM after 24 hrs by Hoechst 33258 staining-based fluorescence microscopic method; assay type: functional, cell-based
PC-12 [16] = test: Induction of apoptosis in rat PC12 cells assessed as nuclear fragmentation up to 3.13 uM after 24 hrs by Hoechst 33258 staining-based fluorescence microscopic method; assay type: functional, cell-based
PC-12 [17] = test: Induction of apoptosis in rat PC12 cells assessed as apoptotic cells up to 3.13 uM after 24 hrs by Annexin V-FITC/propidium iodide staining-based flow cytometric analysis (reference value: 6.56%); assay type: functional
PC-12 [18] = test: Induction of apoptosis in rat PC12 cells assessed as increase in Bax protein expression up to 5 uM after 72 hrs by Western blot analysis; assay type: functional, cell-based
PC-12 [19] = test: Induction of apoptosis in rat PC12 cells assessed as increase in Bad protein expression up to 5 uM after 72 hrs by Western blot analysis; assay type: functional, cell-based
PC-12 [20] = test: Induction of apoptosis in rat PC12 cells assessed as decrease in Bcl-xL level up to 5 uM after 72 hrs by Western blot analysis; assay type: functional, cell-based
PC-12 [21] = test: Induction of apoptosis in rat PC12 cells assessed as increase in cleaved caspase3 expression level after 72 hrs by Western blot analysis; assay type: functional, cell-based
PC-12 [22] = test: Induction of apoptosis in rat PC12 cells assessed as increase in cleaved caspase9 expression level after 72 hrs by Western blot analysis; assay type: functional, cell-based

SMILES: C[C@@H]1CC[C@@H]2[C@]34OO[C@](C)(CC[C@@H]13)O[C@H]4O[C@]2(C)COP(=O)(OC[C@@]1(C)O[C@@H]2O[C@@]3(C)CC[C@H]4[C@H](C)CC[C@@H]1[C@@]24OO3)Oc1ccccc1
- Stability [1]: Stable
- IC50 (A-375): 5.96 µM
- IC50 (A549): 6.37 µM
- IC50 (SH-SY5Y): 3.48 µM
- IC50 (HCT-116): 6.61 µM
- IC50 (PC-12 [2]): 1560 nM
- IC50 (L02): 10.3 µM
- half-life at 1.11 µM [3]: 18.3 min
- microsomal CLint at 1.11 µM [4]: 54 µL/min/mg
- Activity (PC-12 [5]): 76.54%
- Activity (PC-12 [6]): 14.7%
- Activity (PC-12 [7]): 8.77%
- Activity (PC-12 [8]): 79.4%
- Activity (PC-12 [9]): 13.79%
- Activity (PC-12 [10]): 6.81%
- Activity (PC-12 [11]): 86.06%
- Activity (PC-12 [12]): 10.33%
- Activity (PC-12 [13]): 3.61%
- Activity (PC-12 [14]): Dose-dependent effect
- Activity (PC-12 [15]): Active
- Activity (PC-12 [16]): Active
- Activity (PC-12 [17]): 6.56 - 31.04%
- Activity (PC-12 [18]): Active
- Activity (PC-12 [19]): Active
- Activity (PC-12 [20]): Active
- Activity (PC-12 [21]): Dose-dependent effect
- Activity (PC-12 [22]): Dose-dependent effect

SMILES: C[C@@H]1CC[C@H]2[C@@H](O)[C@H](OC(=O)CCC(=O)O[C@@H]3O[C@@H]4O[C@@]5(C)CC[C@H]6[C@H](C)CC[C@@H]([C@H]3O)[C@@]46OO5)O[C@@H]3O[C@@]4(C)CC[C@@H]1[C@]32OO4
- Stability [1]: Stable
- IC50 (A-375): 33.5 µM
- IC50 (A549): 45.7 µM
- IC50 (SH-SY5Y): > 50 µM
- IC50 (HCT-116): 36.3 µM
- IC50 (PC-12 [2]): > 50000 nM
- IC50 (L02): > 50 µM
- half-life at 1.11 µM [3]: 8 min
- microsomal CLint at 1.11 µM [4]: 124 µL/min/mg
